# Patent US12514832B2, “Methods for using low-dose colchicine after myocardial infarction” (INSTITUT DE CARDIOLOGIE DE MONTREAL, priority 2019, dated 2026)
# Where “and” joins values, the source holds several entries; their conditions need not be identical. Equal values may be shown once.
# Test system: rs149354567 (CDRT8/PMP22, chromosome 17); rs10811106 (SAXO1, chromosome 9)
# Assay: COLCOT pharmacogenomic GWAS and Cox / recurrent-event analyses of the primary efficacy end point by genotype
# Type: in vivo, human
# Details: for Primary end point, HR (95% CI) for rs149354567 minor (GA) versus major (G) allele: Cox, controlling for age, sex, C1-C10; for Recurrent primary end point events, Hazard Ratio (95% CI), Andersen-Gill model / Recurrent primary end point events, Hazard Ratio (95% CI), WLW model K = 2, 1st Event / Recurrent primary end point events, Hazard Ratio (95% CI), WLW model K = 2, 2nd Event / Recurrent primary end point events, Hazard Ratio (95% CI), WLW model K = 2, Average / Recurrent primary end point events, Rate Ratio (95% CI), Negative binomial model: colchicine vs placebo
# Description: FIG. 3 is a Manhattan plot of a Genome-wide Association Study (GWAS) with common single-nucleotide polymorphisms (SNPs) with minor allele frequency (MAF)≥5% for the primary efficacy end point using a survival analysis (coxph) regression with all patients in colchicine treatment arm (compliant ITT pgx population) in the COLCOT cohort, controlling for age, sex, principal components (C1-C10) with a threshold of 5.000E-08 (4,462,492 variants and 702 samples).
# FIG. 4 is a plot of SNPs located on chromosome 17 (from 14,623,118 to 15,623,118 bp) for the primary efficacy end point using a survival analysis (coxph) regression with all patients in colchicine treatment arm (compliant ITT pgx population) in the COLCOT cohort, controlling for age, sex, principal components (C1-C10) with a threshold of 5.000E-08 (4,462,492 variants and 702 samples).
# (§1) FIG. 8 is a Manhattan plot of GWAS with common SNPs with MAF≥5% for the primary efficacy endpoint using a survival analysis (coxph) regression with male patients in colchicine treatment arm (compliant ITT pgx population) in the COLCOT cohort, controlling for age, sex specific principal components (SC1-SC10) with a threshold of 5.000E-08 (4,455,743 variants and 576 samples).
# as §1, with “FIG. 9” for “FIG. 8”, “a” for “a Manhattan”, “of single-nucleotide polymorphisms (SNPs) located on chromosome 9 (from 18,537,533 to 19,537,533 bp)” for “of GWAS with common SNPs with MAF≥5%”, “for” for “for the”
# A Genome-wide Association Study (GWAS) was performed for the COLCOT primary efficacy end points. The primary efficacy endpoints were, the earliest occurrence of: cardiovascular death, resuscitated cardiac arrest, acute myocardial infarction, stroke, or urgent hospitalization for angina requiring coronary revascularization.
# A plot of SNPs located on chromosome 17 (from 14,623,118 to 15,623, 118 bp) for the primary efficacy end point using a survival analysis (coxph) regression with all patients in colchicine treatment arm (compliant ITT pgx population) in the COLCOT cohort is shown in FIG. 4. Within this region, SNP rs149354567 was identified for further analysis (Table 10). SNP rs149354567 is intergenic for the CDR8T (CMT1A duplicated region transcript 8) gene and the PMP22 (peripheral myelin protein 22) gene.
# A Cox statistical analysis for the primary endpoint comparing the chromosome 17 SNP rs149354567 minor versus major alleles by treatment arms is shown in Table 11 below.
# A Cox statistical analysis for the primary end point comparing colchicine versus placebo for SNP rs149354567 genotypes is shown in Table 12 below.
# The above analysis is based on time to first event among the components of the primary end point. Three other analyses were also considered to account for multiple events within subjects. These analyses make use of all events, including the ones that occur after the first. The Wei, Lin, and Weissfeld (WLW) marginal model, the Andersen and Gill (AG) model, and the negative binomial model were used.
# A further region of the genome with a genetic variant, rs10811106, that, in males, is associated with efficacy of colchicine in the prevention of cardiovascular events in participants recruited within 30 days of a myocardial infarction (acute coronary syndrome) was identified using similar statistical analyses (FIG. 8). SNP rs10811106 is intronic in the SAXO1 (stabilizer of axonemal microtubules 1) gene (FIG. 9). SNP rs10811106 was associated with the primary efficacy endpoint of COLCOT (composite of cardiovascular death, resuscitated cardiac arrest, myocardial infarction, stroke, or urgent hospitalization for angina requiring coronary revascularization) in the colchicine treatment arm (P=5.8×10^−8).
# [1] = colchicine arm N=2, rs149354567 genotype GA/GA
# [2] = colchicine arm N=102, rs149354567 genotype G/GA
# [3] = colchicine arm N=585, rs149354567 genotype G/G
# [4] = colchicine arm N=689, all rs149354567 genotypes
# [5] = rs10811106 chr 9, EA T vs NEA C, N 564, 30 events
smiles,measurement,setting,value
"COc1cc2c(c(OC)c1OC)-c1ccc(OC)c(=O)cc1[C@@H](NC(C)=O)CC2 [Colchicine, colchicine]",fewer cardiovascular events with colchicine compared to placebo,carriers of genotype G-/G- at rs149354567,40%
same,"Recurrent primary end point events, Hazard Ratio (95% CI) for one unit increase of rs149354567 dosage, Andersen-Gill model",colchicine arm,4.55 (2.45; 8.46)
same,"Recurrent primary end point events, Hazard Ratio (95% CI) for one unit increase of rs149354567 dosage, WLW model K = 2, 1st Event",colchicine arm,5.30 (2.90; 9.70)
same,"Recurrent primary end point events, Hazard Ratio (95% CI) for one unit increase of rs149354567 dosage, WLW model K = 2, 2nd Event",colchicine arm,3.96 (0.99; 15.80)
same,"Recurrent primary end point events, Hazard Ratio (95% CI) for one unit increase of rs149354567 dosage, WLW model K = 2, Average",colchicine arm,5.28 (2.88; 9.66)
same,"Recurrent primary end point events, Rate Ratio (95% CI) for one unit increase of rs149354567 dosage, Negative binomial model",colchicine arm,4.58 (2.40; 8.74)
same,Primary end point events rate per 100 subject-months,"colchicine arm N=2, genotype GA/GA",0 per 100 subject-months
same,Total number of primary end point events,"colchicine arm N=2, genotype GA/GA, 24 follow-up months",0
same,"Primary end point, patients with events (at least one event)","colchicine arm N=2, rs149354567 GA/GA",0
same,Number of subjects with 0 primary end point events,[1],2
same,Number of subjects with 1 primary end point event,[1],0
same,Number of subjects with 2 primary end point events,[1],0
same,Number of subjects with 3 primary end point events,[1],0
same,Number of subjects with 4 primary end point events,[1],0
same,Primary end point events rate per 100 subject-months,"colchicine arm N=102, genotype G/GA",0.71 per 100 subject-months
same,Total number of primary end point events,"colchicine arm N=102, genotype G/GA, 2678 follow-up months",19
same,"Primary end point, patients with events (at least one event)","colchicine arm N=102, rs149354567 G−/GA",17
same,Number of subjects with 0 primary end point events,[2],85
same,Number of subjects with 1 primary end point event,[2],15
same,Number of subjects with 2 primary end point events,[2],2
same,Number of subjects with 3 primary end point events,[2],0
same,Number of subjects with 4 primary end point events,[2],0
same,"Primary end point, patients with events","colchicine arm N=104, rs149354567 G−/GA+GA/GA",17
same,Primary end point events rate per 100 subject-months,"colchicine arm N=585, genotype G/G",0.16 per 100 subject-months
same,Total number of primary end point events,"colchicine arm N=585, genotype G/G, 14370 follow-up months",23
same,"Primary end point, patients with events (at least one event)","colchicine arm N=585, rs149354567 G−/G−",20
same,Number of subjects with 0 primary end point events,[3],565
same,Number of subjects with 1 primary end point event,[3],17
same,Number of subjects with 2 primary end point events,[3],3
same,Number of subjects with 3 primary end point events,[3],0
same,Number of subjects with 4 primary end point events,[3],0
same,Number of subjects with 0 primary end point events,[4],652
same,Number of subjects with 1 primary end point event,[4],32
same,Number of subjects with 2 primary end point events,[4],5
same,Number of subjects with 3 primary end point events,[4],0
same,Number of subjects with 4 primary end point events,[4],0
same,Primary end point events rate per 100 subject-months,[4],0.25 per 100 subject-months
same,Total number of primary end point events,"colchicine arm N=689, all rs149354567 genotypes, 17072 follow-up months",42
same,"Primary end point, patients with events (at least one event)","colchicine arm N=689, all rs149354567 genotypes, compliant ITT pgx population",37
same,"Primary end point, % of events","colchicine arm, all rs149354567 genotypes",5.4%
same,"Primary end point, hr per effect allele, rs75780450 (T vs C)","colchicine arm, males + females, compliant ITT pgx population",4.611
same,"Primary end point, hr per effect allele, rs1854156 (C vs G)","colchicine arm, males only",5.104
same,"Primary end point, hr per effect allele, rs10118790 (A vs G)","colchicine arm, males only",5.05
same,"Primary end point, hr per effect allele, rs10811106 (T vs C)","colchicine arm, males only",5.503
same,"Primary end point, hr per effect allele, rs10963895 (A vs G)","colchicine arm, males only",4.191
same,"Primary end point, hr per effect allele, rs28733572 (C vs G)","colchicine arm, males only",5.043
same,"Primary end point, % of events","colchicine arm, rs149354567 G−/GA",16.7%
same,"Primary end point, % of events","colchicine arm, rs149354567 G−/GA+GA/GA",16.3%
same,"Primary end point, % of events","colchicine arm, rs149354567 G−/G−",3.4%
same,"Primary end point, HR (95% CI) for rs149354567 minor (GA) versus major (G) allele","colchicine arm, compliant ITT pgx population",5.30 (2.84-9.89)
same,"Primary end point, HR (95% CI) for rs149354567 minor (GA) versus major (G) allele","colchicine arm, compliant ITT pgx population, listed as colchicine",5.30 and 5.299
same,"Recurrent primary end point events, Hazard Ratio (95% CI), Andersen-Gill model",all rs149354567 genotypes,0.61 (0.39; 0.96)
same,"Recurrent primary end point events, Hazard Ratio (95% CI), WLW model K = 2, 1st Event",all rs149354567 genotypes,0.82 (0.53; 1.28)
same,"Recurrent primary end point events, Hazard Ratio (95% CI), WLW model K = 2, 2nd Event",all rs149354567 genotypes,0.28 (0.10; 0.73)
same,"Recurrent primary end point events, Hazard Ratio (95% CI), WLW model K = 2, Average",all rs149354567 genotypes,0.80 (0.52; 1.25)
same,"Recurrent primary end point events, Rate Ratio (95% CI), Negative binomial model",all rs149354567 genotypes,0.57 (0.34; 0.94)
same,"Recurrent primary end point events, Hazard Ratio (95% CI), Andersen-Gill model",rs149354567 genotype G/G,0.48 (0.27; 0.85)
same,"Recurrent primary end point events, Hazard Ratio (95% CI), WLW model K = 2, 1st Event",rs149354567 genotype G/G,0.60 (0.34; 1.04)
same,"Recurrent primary end point events, Hazard Ratio (95% CI), WLW model K = 2, 2nd Event",rs149354567 genotype G/G,0.25 (0.07; 0.85)
same,"Recurrent primary end point events, Hazard Ratio (95% CI), WLW model K = 2, Average",rs149354567 genotype G/G,0.59 (0.34; 1.03)
same,"Recurrent primary end point events, Rate Ratio (95% CI), Negative binomial model",rs149354567 genotype G/G,0.43 (0.23; 0.82)
same,"Recurrent primary end point events, Hazard Ratio (95% CI), Andersen-Gill model","rs149354567 genotype G/G, listed as colchicine",0.48
same,"Recurrent primary end point events, Hazard Ratio (95% CI), Andersen-Gill model",rs149354567 genotype G/GA,0.84 (0.34; 2.11)
same,"Recurrent primary end point events, Hazard Ratio (95% CI), WLW model K = 2, 1st Event",rs149354567 genotype G/GA,1.62 (0.69; 3.79)
same,"Recurrent primary end point events, Hazard Ratio (95% CI), WLW model K = 2, 2nd Event",rs149354567 genotype G/GA,0.17 (0.03; 1.02)
same,"Recurrent primary end point events, Hazard Ratio (95% CI), WLW model K = 2, Average",rs149354567 genotype G/GA,1.35 (0.58; 3.12)
same,"Recurrent primary end point events, Rate Ratio (95% CI), Negative binomial model",rs149354567 genotype G/GA,0.91 (0.39; 2.08)
same,fewer cardiovascular events with colchicine compared to placebo,"males, genotype C/C at rs10811106",54%
same,"Primary end point in males only, HR (95% CI) colchicine versus placebo","rs10811106 CT (16%), N total 182",2.49 (0.92-6.75)
same,"Coefficient, genetic association, chromosome 9 locus (primary efficacy end point)",[5],1.705
same,"HR (hazard ratio), genetic association, chromosome 9 locus (primary efficacy end point)",[5],5.50
